Reference: paper PMC11899342, “Novel Triazeneindole Antibiotics: Synthesis and Hit-to-Lead Optimization” (International Journal of Molecular Sciences, 2025)
Converted amounts (≈) assume the structure as drawn. Read-outs that look alike come from different tables or passages of the source.

Key:
[1] = system: MRSA clinical isolates; assay: MIC by broth microdilution against multidrug-resistant MRSA clinical isolates; format: cell-based, Staphylococcus aureus; conditions: 8 multidrug-resistant MRSA clinical isolates; tested 0.125-1 mg/L
Procedure: Clinical MRSA isolates with multidrug resistance were obtained from the collection of the Research Institute of Antimicrobial Chemotherapy, Smolensk State Medical Academy.
The MICs were determined using a broth microdilution method according to [42]. Briefly, serial dilutions of the tested compounds in 50 µL of Mueller Hinton broth (BD) were prepared in 96-well microplates. The antibiotics vancomycin and linezolid (Sigma-Aldrich, St. Louis, MO, USA) were used as a positive control. Bacterial suspensions of the tested MRSA strains were prepared in the Mueller Hinton broth (BD) with a concentration 1 × 10^6 CFU/mL, and then 50 µL aliquots were added to the prepared microplates. The final concentrations of the antibiotics in the wells were 1, 0.5, 0.25, and 0.125 mg/L, for the tested compounds, and 2 mg/L for vancomycin and linezolid. Negative control (lack of bacterial cells) and growth control (lack of compound) wells were included in all plates. The microplates were incubated at 37 °C for 18 h. The growth was assessed visually after incubation, and the MIC was assumed as the lowest compound concentration at which a noticeable growth of the microorganisms was inhibited (no visible growth). All experiments were conducted in triplicate.

[2] = system: human embryonic fibroblasts (HEFs); assay: MTT cytotoxicity on human embryonic fibroblasts; format: cell-based; conditions: Homo sapiens, Fibroblast, 24 h, ND = non-toxic in tested concentrations (up to 50 mg/L)
Procedure: The primary screening of 22 substances was performed on human embryonic fibroblasts (HEFs). […] The HepG2 cell line was obtained from the American Type Culture Collection (ATCC cat. # HB-8065). The primary HEF cells (normal human embryonic fibroblasts) were derived from human embryonic stem cells. The cells were cultured in DMEM/F12 (1:1) medium containing 10% fetal bovine serum (Invitrogen, Carlsbad, CA, USA) at 37 °C and 5% CO2, according to standard mammalian tissue culture protocols and sterile technique. […] The incubation time with the substance was 24 h for all substances and cell lines. Cell detachment by trypsin, centrifugation, and counting in a hemocytometer were performed 16 h before the addition of the substance. For correct counting of the HepG2 cells, the cell suspension was passed through a syringe needle to get rid of cell aggregates. The cells were placed in the wells of a 96-well plate. The number of cells was selected according to the properties of the cell line and the final optical density in the experiment. Fibroblasts and hepatocytes were used in the amount of 10 thousand cells per well in 100 μL of DMEM/F12 medium supplemented with 10% fetal bovine serum. The substances were added to 100 µL of medium in the wells so that the final concentrations were 50, 25, 12.5, 6.25, 3.125, and 1.62 mg/L. The final well volume was 200 µL. The medium containing fetal bovine serum, without added substances, was used as a negative control. After 24 h, excessive amounts of medium were discarded. A total of 30 µL of MTT solution (5 mg/mL in PBS) was added to each well. After the precipitation of formazan crystals (3 h incubation), they were dissolved using 100 μL of dimethyl sulfoxide. The optical density (OD) was measured at 570 nm using a microplate reader (Eppendorf). For every condition, the cell viabilities were assessed in at least three independent experiments for every cell culture. Cell survival was calculated using the following formula:(OD of treated cells − OD blank)/(OD of control cells − OD blank) × 100%, where OD blank represents the OD values in wells without cells but with the addition of the MTT and DMSO solutions. The results were presented in the form of cytotoxicity curves, and the graphs were also plotted in a Microsoft Excel program; the calculation of the IC50 half-maximal inhibition concentration values was performed in a GraphPad Prism 6.0 (GraphPad Software Inc., San Diego, CA, USA) program, based on the equations of the cytotoxicity curves.

[3] = Solubility in water by HPLC; format: physicochemical; conditions: water, kinetic from dmso stock
Procedure: The solubility of the compounds in water was assessed using HPLC analysis. Two 1.0 mg portions of the test compounds were dissolved in 10 μL of dimethyl sulfoxide; 1.0 mL of acetonitrile was added to one sample (standard), and 1.0 mL of water was added to the second sample (tested sample). Both vials were mixed in a shaker for 5 min, then centrifuged at 10,000 rpm for 5 min. The supernatants were collected and analyzed using Agilent 1290 Infinity (Agilent Technologies, Santa Clara, CA, USA) with a YMC-Triart C18 50 × 2.0 mm, 1.9 μm column. The concentration of the test compound in water was determined by comparing the peak areas of the standard (concentration 1.0 mg/mL) and the tested sample.

[4] = read-out: Solubility in water, mass concentration
[5] = read-out: Solubility in water, molar concentration

Row | SMILES | MIC Range Against 8 MRSA Strains [1] | solubility at 5 min [3, 4] | solubility at 5 min [3, 5] | IC50 [2]
1 | CCOC(=O)c1[nH]c2ccccc2c1/N=N/N1CCCN(C)CC1 [BX-SI005, Ethyl (E)-3-((4-methyl-1,4-diazepan-1-yl)diazenyl)-1H-indole-2-carboxylate] | 1 µg/mL (≈ 3.04 µM) | 70.2 µg/mL | 210 µM | 12 µg/mL (≈ 36.4 µM)
2 | CCOC(=O)c1[nH]c2ccccc2c1/N=N/N(C)CCN(C)C [BX-SI010, Ethyl (E)-3-(3-(2-(dimethylamino)ethyl)-3-methyltriaz-1-en-1-yl)-1H-indole-2-carboxylate] | 1 µg/mL (≈ 3.15 µM) | 475 µg/mL | 1490 µM | 19 µg/mL (≈ 59.9 µM)
3 | CCOC(=O)c1c(/N=N/N(CC)CC)c2cccnc2n1C [BX-SI019, Ethyl (E)-3-(3,3-diethyltriaz-1-en-1-yl)-1-methyl-1H-pyrrolo[2,3-b]pyridine-2-carboxylate] | >1 µg/mL | 88.2 µg/mL | 290 µM | –
4 | CCOC(=O)c1[nH]c2ccccc2c1/N=N/N(C)Cc1ccccc1 [BX-SI003, Ethyl (E)-3-(3-benzyl-3-methyltriaz-1-en-1-yl)-1H-indole-2-carboxylate] | 1 µg/mL (≈ 2.97 µM) | 29.6 µg/mL | 90 µM | 3 µg/mL (≈ 8.92 µM)
5 | CCOC(=O)c1[nH]c2ccccc2c1/N=N/N1CCC(CCOC)CC1 [BX-SI016, Ethyl (E)-3-((4-(2-methoxyethyl)piperidin-1-yl)diazenyl)-1H-indole-2-carboxylate] | >1 µg/mL | – | – | 34 µg/mL (≈ 94.9 µM)

The next lines start with results.

Row | MIC Range Against 8 MRSA Strains [1] | solubility at 5 min [3, 4] | solubility at 5 min [3, 5] | SMILES | IC50 [2]
6 | 0.5 to 1 µg/mL | 16.7 µg/mL | 53 µM | CCOC(=O)c1[nH]c2ncccc2c1/N=N/N1CCN(C)CC1 [BX-SI057, Ethyl (E)-3-((4-methylpiperazin-1-yl)diazenyl)-1H-pyrrolo[2,3-b]pyridine-2-carboxylate] | 3 µg/mL (≈ 9.48 µM)
7 | 1 µg/mL (≈ 3.17 µM) | 0.399 µg/mL | 1 µM | CCOC(=O)c1[nH]c2ncccc2c1/N=N/N1CCC(C)CC1 [BX-SI058, Ethyl (E)-3-((4-methylpiperidin-1-yl)diazenyl)-1H-pyrrolo[2,3-b]pyridine-2-carboxylate] | 12 µg/mL (≈ 38 µM)
8 | 1 µg/mL (≈ 3.12 µM) | 4.48 µg/mL | 14 µM | CCOC(=O)c1[nH]c2cc(F)ccc2c1/N=N/N1CCOCC1 [BX-SI040, Ethyl (E)-6-fluoro-3-(morpholinodiazenyl)-1H-indole-2-carboxylate] | 12 µg/mL (≈ 37.5 µM)
9 | >1 µg/mL | 1.22 µg/mL | 4 µM | CCOC(=O)c1[nH]c2ccccc2c1/N=N/N1CCC(C)CC1 [BX-SI055, Ethyl (E)-3-((4-methylpiperidin-1-yl)diazenyl)-1H-indole-2-carboxylate] | 16 µg/mL (≈ 50.9 µM)
10 | >1 µg/mL | 10 µg/mL | 30 µM | CCOC(=O)c1[nH]c2cc(F)ccc2c1/N=N/N(CC)CC [BX-SI036, Ethyl (E)-3-(3,3-diethyltriaz-1-en-1-yl)-6-fluoro-1H-indole-2-carboxylate] | –
11 | >1 µg/mL | 927 µg/mL | 2780 µM | CCOC(=O)c1c(/N=N/N(C)CCN(C)C)c2cccnc2n1C [BX-SI027, Ethyl (E)-3-(3-(2-(dimethylamino)ethyl)-3-methyltriaz-1-en-1-yl)-1-methyl-1H-pyrrolo[2,3-b]pyridine-2-carboxylate] | –
12 | >1 µg/mL | 12.5 µg/mL | 10 µM | CCOC(=O)c1c(/N=N/N2CCN(Cc3ccccc3)CC2)c2cccnc2n1C [BX-SI021, Ethyl (E)-3-((4-benzylpiperazin-1-yl)diazenyl)-1-methyl-1H-pyrrolo[2,3-b]pyridine-2-carboxylate] | –
